# Biological target: T1, RSV A2_F (Human respiratory syncytial virus A, UniProt P03420)
# T1 construct: expressed in transfected cells; host or cells: HEK 293T/17
# Assay: RSV fusion assay (luciferase reporter, HEK 293T/17 cells transfected with A2_F)
# Format: cell-based
# Conditions: Fusion activity IC50 μM, HEK 293T/17 cells, 24 hr
# Description: HEK 293T/17 cells were cultured in T75 culture flasks in Dulbecco's medium (DMEM) containing 10% FBS and 1× Penicillin-Streptomycin (Pen/Strep) and warmed to 37° C. prior to use. The cells were passaged by first washing briefly with 3 ml phosphate buffered saline (PBS) followed by a 4 min incubation with […] at 37° C. 7 ml media was then added to the flask and the cells dispersed via pipetting (×3) against the bottom of the flask. Two further T75 flasks were each seeded with 2×10^6 cells in 15 ml fresh media.
# Cells were seeded on the T75 plates at the same density as on the 6-well plates the area of a T75 flask and one 1.75 cm radius well from a 6-well plate were compared. 7.79×2 ml of 3×10^5 cells ml^−1 was used to seed a single T75 flask.
# HEK cells were removed from a T75 flask as described above. The cells were counted and diluted to 3×10^5 cells/ml in fresh media. Two T75 flasks were each seeded with 15.58 ml diluted cells.
# The plasmid DNA (for pFR-Luc and pcDNA3.1_Gal4/NFκB) to be transfected into the HEK cells was first prepared in serum free media (DMEM+Pen/Strep) containing the transfection reagent Fugene 6 (Promega). Transfections were set up as follows (Luc=pFR_Luc, Gal4=pcDNA3.1+_Gal4/NFκB, A2_F=pcDNA3.1+_A2_F)
# Serum free media was placed in a 1.5 ml eppendorf tube then the fugene 6 was added into the media. The tube was vortexed for 1 s before being incubated at RT for 5 min. The plasmid DNA was then added to the tube, vortexed for 1 s, then incubated at RT for 15 min
# The transfection reagents were then added to the appropriate T75 flask by tipping the flask on end and adding the reagents directly to the media already in the flask. The flask was then tipped on its back so the media could be mixed thoroughly whilst not disturbing the cells before placing the flask the right way up and incubating overnight at 37° C. and 5% CO2.
# Compounds were diluted (in a polypropylene round-bottomed 96 well plate) 1:3 in a twelve point dilution curve to give top [final] of either 3.3 μM, 1 μM, 500 nM 200 nM or 100 nM. The Control compound was always run at a concentration of 100 nM.
# The cells were then counted and diluted to 4×10^5 cells/ml in fresh media. 50 μl of transfection population 1 cells were added to all wells of the assay plates. 100 μl diluted compound (2 rows per compound), standard curve (one row) and controls (100 nM RV (100% inhibition, four wells), DMSO (0% inhibition, eight wells)) were added to the appropriate wells. 50 μl of the diluted (4×10^5 cells/ml) transfection population 2 cells when then added to all wells.
# The plates were then incubated for 24 hr at 37° C. and 5% CO2
# Buffers were prepared for the luciferase assay (20 mM tricine, 10 mM MgSO4, 1 mM EDTA, 10 mM DTT) and lysis (25 mM tris-phosphate, 8 mM MgCl2, 1 mM DTT, 1% Triton X-100, 15% glycerol) and stored at −20° C.
# Luminescence was measured as described:
# Media was discarded into Virkon and the plates washed with 100 ul PBS per well. 20 ul/well of lysis buffer was added to each well and incubated shaking for 5 min at RT. Luciferin was added to LAAB at a dilution of 1:50 to give a working luciferin buffer. 100 μl working luciferin buffer was added to each well and luminescence was measured immediately. […]
# T1 sequence (P03420 137-574): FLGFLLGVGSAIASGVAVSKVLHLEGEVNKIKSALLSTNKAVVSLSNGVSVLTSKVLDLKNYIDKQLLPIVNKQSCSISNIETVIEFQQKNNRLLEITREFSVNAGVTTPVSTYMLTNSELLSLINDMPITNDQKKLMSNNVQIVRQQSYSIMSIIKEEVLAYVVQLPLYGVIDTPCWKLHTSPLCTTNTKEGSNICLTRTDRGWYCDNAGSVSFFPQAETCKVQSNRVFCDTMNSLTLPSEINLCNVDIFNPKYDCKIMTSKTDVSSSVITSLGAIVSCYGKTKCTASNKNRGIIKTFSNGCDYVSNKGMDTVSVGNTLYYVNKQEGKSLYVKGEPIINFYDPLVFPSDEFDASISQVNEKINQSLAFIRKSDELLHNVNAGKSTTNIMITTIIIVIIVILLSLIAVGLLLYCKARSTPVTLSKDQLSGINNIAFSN
# T1 sequence (P03420 26-109): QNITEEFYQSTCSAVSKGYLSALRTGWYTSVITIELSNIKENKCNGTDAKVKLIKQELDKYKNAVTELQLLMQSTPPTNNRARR
row,SMILES,IC50 [µM]
1,"NC1CCN(c2ncc(CN3C(=O)C4(CC4)c4ccc(F)cc43)c(NCCCCO)n2)CC1 [Compound 24, 1′-{[2-(4-Aminopiperidin-1-yl)-4-[(4-hydroxybutyl)amino]pyrimidin-5-yl]methyl}-6′-fluoro-1′,2′-dihydrospiro[cyclopropane-1,3′-indole]-2′-one]",0.695
2,"NC1CCN(c2ncc(CN3C(=O)C4(CC4)c4ccc(F)cc43)c(NCCCCCO)n2)C1 (stereo not shown) [Compound 19, 1′-{[2-(3-Aminopyrrolidin-1-yl)-4-[(5-hydroxypentyl)amino]pyrimidin-5-yl]methyl}-6′-fluoro-1′,2′-dihydrospiro[cyclopropane-1,3′-indole]-2′-one]",0.362
3,"NC1CCN(c2ncc(CN3C(=O)C4(CC4)c4ccc(F)cc43)c(N3CCOCC3)n2)C1 (stereo not shown) [Compound 9, 1′-((2-(3-Aminopyrrolidin-1-yl)-4-morpholinopyrimidin-5-yl)methyl)-6′-fluorospiro[cyclopropane-1,3′-indolin]-2′-one]",3.66
4,CC(C)CNc1nc(N2CCC(CN)CC2)ncc1CN1C(=O)C2(CC2)c2ccc(F)cc21 [Compound 6],5.22
5,"CS(=O)(=O)CCNc1nc(N2CCC(N)C2)ncc1CN1C(=O)C2(CC2)c2ccc(F)cc21 (stereo not shown) [Compound 18, 1′-{[2-(3-Aminopyrrolidin-1-yl)-4-[(2-methanesulfonylethyl)amino]pyrimidin-5-yl]methyl}-6′-fluoro-1′,2′-dihydrospiro[cyclopropane-1,3′-indole]-2′-one]",0.885
6,"NC1CCN(c2ncc(CN3C(=O)C4(CC4)c4ccc(F)cc43)c(OCCCF)n2)C1 (stereo not shown) [Compound 22, 1′-{[2-(3-Aminopyrrolidin-1-yl)-4-(3-fluoropropoxy)pyrimidin-5-yl]methyl}-6′-fluoro-1′,2′-dihydrospiro[cyclopropane-1,3′-indole]-2′-one]",0.951
7,"NC1CCN(c2ncc(CN3C(=O)C4(CC4)c4ccc(F)cc43)c(SCCCCO)n2)C1 (stereo not shown) [Compound 16, 1′-{[2-(3-Aminopyrrolidin-1-yl)-4-[(4-hydroxybutyl)sulfanyl]pyrimidin-5-yl]methyl}-6′-fluoro-1′,2′-dihydrospiro[cyclopropane-1,3′-indole]-2′-one]",2.79
8,"NC1CCN(c2nc(NCCCCO)ncc2CN2C(=O)C3(CC3)c3ccc(F)cc32)C1 (stereo not shown) [Compound 12, 1′-((4-(3-Aminopyrrolidin-1-yl)-2-((4-hydroxybutyl)amino)pyrimidin-5-yl)methyl)-6′-fluorospiro[cyclopropane-1,3′-indolin]-2′-one]",4.78
9,"CC(C)CNc1nc(N2CCOCC2)ncc1CN1C(=O)C2(CC2)c2ccc(F)cc21 [Compound 8, 6′-Fluoro-1′-((4-(isobutylamino)-2-morpholinopyrimidin-5-yl)methyl)spiro[cyclopropane-1,3′-indolin]-2′-one]",8.53
10,"CC(=O)N1CCN(c2nc(N3CCC(N)C3)ncc2CN2C(=O)C3(CC3)c3ccc(F)cc32)CC1 (stereo not shown) [Compound 17, 1′-{[4-(4-Acetylpiperazin-1-yl)-2-(3-aminopyrrolidin-1-yl)pyrimidin-5-yl]methyl}-6′-fluoro-1′,2′-dihydrospiro[cyclopropane-1,3′-indole]-2′-one]",5.46
11,"CS(=O)(=O)N1CCN(c2nc(N3CCC(N)C3)ncc2CN2C(=O)C3(CC3)c3ccc(F)cc32)CC1 (stereo not shown) [Compound 14, 1′-{[2-(3-Aminopyrrolidin-1-yl)-4-(4-methanesulfonylpiperazin-1-yl)pyrimidin-5-yl]methyl}-6′-fluoro-1′,2′ dihydrospiro[cyclopropane-1,3′-indole]-2′-one]",1.2
12,"NC1CCN(c2ncc(CN3C(=O)C4(CC4)c4ccc(F)cc43)c(NCCN3CCOCC3)n2)C1 (stereo not shown) [Compound 3, 1′-((2-(3-Aminopyrrolidin-1-yl)-4-((2-morpholinoethyl)amino)pyrimidin-5-yl)methyl)-6′-fluorospiro[cyclopropane-1,3′-indolin]-2′-one]",4.18

# Same assay, conditions: Fusion activity PIC50, HEK 293T/17 cells, 24 hr
row,SMILES,IC50 [µM]
1,"NC1CCN(c2ncc(CN3C(=O)C4(CC4)c4ccc(F)cc43)c(SCCCCO)n2)C1 (stereo not shown) [Compound 16, 1′-{[2-(3-Aminopyrrolidin-1-yl)-4-[(4-hydroxybutyl)sulfanyl]pyrimidin-5-yl]methyl}-6′-fluoro-1′,2′-dihydrospiro[cyclopropane-1,3′-indole]-2′-one]",2.75
